Test results taken from ChEMBL document CHEMBL4052691, “Discovery of BMS-961955, an allosteric inhibitor of the hepatitis C virus NS5B polymerase” (Bioorg Med Chem Lett, 2017).

What was measured:
[1] = AUC (0 to 24 hrs) in rat at 10 mg/kg, iv; assay type: ADME, organism-based; design: dose 10 mg/kg, time < 24 hr, route intravenous; settings: in vivo
[2] = Apparent permeability of the compound at pH 5.5 by PAMPA; assay type: physicochemical
[3] = Volume of distribution at steady state in cynomolgus monkey at 1 mg/kg, iv; assay type: ADME, organism-based, Macaca fascicularis; settings: in vivo, read-out: Vdss
[4] = Oral bioavailability in cynomolgus monkey at 3 mg/kg; assay type: ADME, organism-based, Macaca fascicularis; settings: in vivo
[5] = Volume of distribution at steady state in dog at 1 mg/kg, iv; assay type: ADME, organism-based, Canis lupus familiaris; settings: in vivo, read-out: Vdss
[6] = Volume of distribution at steady state in rat at 5 mg/kg, iv; assay type: ADME, organism-based; settings: in vivo, read-out: Vdss
[7] = AUC (0 to 24 hrs) in cynomolgus monkey at 3 mg/kg, […]; assay type: ADME, organism-based, Macaca fascicularis; design: dose 3 mg/kg, time < 24 hr; settings: in vivo
[8] = AUC (0 to 24 hrs) in dog at 1 mg/kg, iv; assay type: ADME, organism-based, Canis lupus familiaris; design: time < 24 hr, dose 1 mg/kg, route intravenous; settings: in vivo
[9] = AUC (0 to 24 hrs) in dog at 3 mg/kg, po; assay type: ADME, organism-based, Canis lupus familiaris; design: time < 24 hr, dose 3 mg/kg, route oral; settings: in vivo
[10] = Oral bioavailability in dog at 3 mg/kg; assay type: ADME, organism-based, Canis lupus familiaris; settings: in vivo
[11] = Oral bioavailability rat at 10 mg/kg; assay type: ADME, organism-based; settings: in vivo
[12] = Apparent permeability of the compound at pH 7.4 by PAMPA; assay type: physicochemical
[13] = AUC (0 to 24 hrs) in cynomolgus monkey at 1 mg/kg, iv; assay type: ADME, organism-based, Macaca fascicularis; design: dose 1 mg/kg, time < 24 hr, route intravenous; settings: in vivo
[14] = AUC (0 to 24 hrs) in rat at 5 mg/kg, iv; assay type: ADME, organism-based; design: time < 24 hr, dose 5 mg/kg, route intravenous; settings: in vivo
Rattus norvegicus = assay: (§1) AUC (0 to 6 hrs) in rat at 5 mg/kg, iv; assay type: ADME, organism-based; design: dose 5 mg/kg, time < 6 hr, route intravenous; settings: in vivo, 6 h
[15] = as §1; assay type: ADME, organism-based; design: dose 5 mg/kg, time < 6 hr, route intravenous; settings: in vivo

SMILES | Papp [2] [×10⁻⁶ cm/s] | bioavailability [11] [%] | Papp [12] [×10⁻⁶ cm/s] | AUC(0-t) at 24 h [14] [µM·h] | other results
CN1CC2CCC(C1)N2C(=O)[C@]12C[C@H]1c1cc(F)ccc1-c1c(C3CCCCC3)c3ccc(C(=O)NS(=O)(=O)C4(C)CC4)cc3n1C2 | 52.3 | 52 | 59 | 12.3 to 12.4 | AUC(0-t) at 24 h [1]: 12.4 µM·h; Vd [3]: 3.1 L/kg; bioavailability [4]: 48%; Vd [5]: 0.6 L/kg; Vd [6]: 3.9 L/kg; AUC(0-t) at 24 h [7]: 3.1 µM·h; AUC(0-t) at 24 h [8]: 25.7 µM·h; AUC(0-t) at 24 h [9]: 62.1 µM·h; bioavailability [10]: 84%; AUC(0-t) at 24 h [13]: 2.3 µM·h
CN1CC2CCC(C1)N2C(=O)[C@]12C[C@H]1c1cc(F)ccc1-c1c(C3CCCCC3)c3ccc(C(=O)NS(=O)(=O)N4CCC4)cc3n1C2 | – | 19 | – | – | AUC (Rattus norvegicus): 0.5 µM·h
CN1CC2CCC(C1)N2C(=O)[C@]12C[C@H]1c1cc(F)ccc1-c1c(C3CCCCC3)c3ccc(C(=O)NS(=O)(=O)C(C)(C)C)cc3n1C2 | 13.5 | 8 | 23.8 | – | AUC(0-t) at 6 h [15]: 1.3 µM·h
CN1CC2CCC(C1)N2C(=O)[C@]12C[C@H]1c1cc(F)ccc1-c1c(C3CCCCC3)c3ccc(C(=O)NS(=O)(=O)C4CC4)cc3n1C2 | – | 23 | – | 1.51 | –
CCS(=O)(=O)NC(=O)c1ccc2c(C3CCCCC3)c3n(c2c1)C[C@@]1(C(=O)N2C4CCC2CN(C)C4)C[C@H]1c1cc(F)ccc1-3 | – | 13.6 | – | 0.857 | –
